Here are results for three compounds from US6562849B1, “Amine derivative compounds” (Sankyo Company, Limited, priority 1999, dated 2003).

Structures can show the parent of a compound that is named as a salt.

The subject of this test is KK mice (age 4-5 months) with diabetes. The experiment in a line: Blood sugar lowering effect in KK mice with diabetes. It is filed as in vivo. The note with it: Mus musculus, po, 72 h, powder diet containing 0.01% of the test compound for 3 days, plasma glucose vs control group, groups of 4 mice, read-out: Blood sugar decrease rate (%). The source says: [Test Example] Blood Sugar Lowering Effect
Blood samples were collected from the caudal vein of KK mice (age 4-5 months) with diabetes followed by measurement of their blood sugar levels. Next, after assigning the mice to groups (of 4 mice each) so that the mean blood sugar levels of each group were the same, mouse laboratory powder diet (F-1, Funabashi Farms), prepared so as to contain 0.01% of the test compound, was given to the mice for 3 days. The groups of mice that were given test compound were designated as the drug dose groups. It should be noted that a group that was given laboratory diet not containing the test compound was designated as the control group. Blood samples were collected from the caudal vein of the mice 3 days later and the glucose concentration of the plasma obtained by centrifugal separation was measured with a glucose analyzer (Glucoloader, A & T Corp.). The mean decrease of blood sugar rate (%) was determined according to the following equation.
Blood sugar decrease rate (%)=(mean blood sugar value of control group−mean blood sugar value […] of drug dose group)×100/(blood sugar value of control group)
For `CCCCCCN(C(C)=O)c1ccc(Oc2ccc3nc(COc4ccc(CC5SC(=O)NC5=O)cc4)n(C)c3c2)cc1` (stereo not drawn) [Example 61, N-[4-[2-[4-(2,4-Dioxothiazolidin-5-ylmethyl)phenoxymethyl]-1-methyl-1H-benzimidazol-6-yloxy]phenyl]-N-n-hexylacetamide hydrochloride], the inhibition in vivo at 0.01 % in diet worked out at 54.2%. `Cn1c(COc2ccc(CC3SC(=O)NC3=O)cc2)nc2ccc(Oc3ccc(CCNC(=O)c4cccnc4)cc3)cc21` (stereo not drawn) [Example 63, N-[2-[4-[2-[4-(2,4-Dioxothiazolidin-5-ylmethyl)phenoxymethyl]-1-methyl-1H-benzimidazol-6-yloxy]phenyl]ethyl]nicotinamide dihydrochloride]: the inhibition in vivo at 0.01 % in diet was determined as 55.7%. Turning to `Cn1c(COc2ccc(CC3SC(=O)NC3=O)cc2)nc2ccc(Oc3ccc(CCNC(=O)Cc4cccc(Cl)c4)cc3)cc21` (stereo not drawn) [Example 64, 2-(3-Chlorophenyl)-N-[2-[4-[2-[4-(2,4-dioxothiazolidin-5-ylmethyl)phenoxymethyl]-1-methyl-1H-benzimidazol-6-yloxy]phenyl]ethyl]acetamide hydrochloride], the inhibition in vivo at 0.01 % in diet came out at 43.5%.
